Test results reported in patent US20220053777A1, “NON-TOXIC ANT-REPELLING GEL” (priority 2013, published 2022).

Test: Observation of polymerization (viscosity increase) of oleic acid with/without fumed silica and air
Format: physicochemical
Excerpt: We can conclude that it is the addition of fumed silica to the oleic acid formula which is responsible for promoting this polymerization reaction. […] Based on chemical fundamentals we theorize that it is the fumed silica's high surface area that acts as the catalyst to increase the reaction between the oleic acid and oxygen in the air to promote oxidation, resulting in cross-linking, resulting in polymerization, resulting in an increase in viscosity and hardening. Since only some of the oleic acid molecules participate in this polymerization reaction, the rest of the oleic acid in the gel formulation is free to still act as an effective repellent.

CCCCCCCC/C=C\CCCCCCCC(=O)O [Oleic Acid, oleic acid]
Polymerization (Exposure to Air: Yes): No | increase in viscosity (polymerization) (exposed to air, temperatures normally encountered in the environment): no substantial increase in viscosity
